SMILES strings stand for the structures.

The series can be described thus: Human HepG2 cell viability assay in 384 well format. It is filed as toxicity, cell-based. To be noted: HepG2 cells, read-out: Inhibition. The arrangement: dose 125 nL, time 70.5 hour; concentration not given beside the values.
In the case of `Cc1cc(C2CCCCN2C(=O)c2cccn2C)nc2nccn12` (centres undefined), the cytotoxicity at 70.5 h is 4.86%.

`O=C(NCCNC1CCCC1)c1cccs1`: the cytotoxicity at 70.5 h was -6.72%.

As to `COCC(=O)N1CCCC(c2csc(NC(C)=O)n2)C1` (centres undefined), the cytotoxicity at 70.5 h is -8.74%.

With `CC(=O)N1CCOC(c2nc(N(C)C)ncc2-c2cccc(F)c2)C1` (centres undefined), the cytotoxicity at 70.5 h is -7.24%.

Turning to `Cc1nccc(N2CCCC(C)(C(=O)NC3CCCC3)C2)n1` (centres undefined), the cytotoxicity at 70.5 h was -15.1%.

As to `Fc1ccccc1-c1nccnc1C1CCCNC1` (centres undefined), the cytotoxicity at 70.5 h was -8.72%.

Take `CNc1cc(C2CCCN(S(=O)(=O)c3cn[nH]c3)C2)ccn1` (centres undefined): the cytotoxicity at 70.5 h was -16.1%.

With `Cc1c[nH]c(C2COCCN2S(=O)(=O)c2cn[nH]c2)n1` (centres undefined), the cytotoxicity at 70.5 h was -12.8%.

With `CS(=O)(=O)N1CCCC1Cn1cccn1` (centres undefined), the cytotoxicity at 70.5 h is 2.44%.

For the compound `CC1(C(=O)NC2CCCC2)CCCN(c2cnccn2)C1` (centres undefined), the cytotoxicity at 70.5 h is -6.96%.

Take `CN(C)c1nccc(C2CCCN2S(=O)(=O)c2cn(C)cn2)n1` (centres undefined): the cytotoxicity at 70.5 h is -15.2%.

`O=C1CO[C@H]2CN(Cc3cccc4[nH]ccc34)C[C@@H]2N1C1CCOCC1`: the cytotoxicity at 70.5 h worked out at 5.48%.

For the compound `Cc1ccc(Nc2nccc(C3CN(C(C)C)C3)n2)nc1`, the cytotoxicity at 70.5 h stood at 42.5%.

For `O=C(Nc1ccccn1)C1CCN(C(=O)COc2ccccc2F)C1` (centres undefined), the cytotoxicity at 70.5 h was 18.6%.

On to `CN1CCNC(Cc2ccc(-c3ccccc3)cc2)C1=O` (centres undefined), for which the cytotoxicity at 70.5 h is 21.5%.

For the compound `CNc1cc(C2CCCN2S(=O)(=O)c2cccc(F)c2)ccn1` (centres undefined), the cytotoxicity at 70.5 h is 14.1%.

With `Cn1nccc1C(=O)N1CCCC1c1[nH]ncc1C(N)=O` (centres undefined), the cytotoxicity at 70.5 h is -6.47%.

`Cc1sc2c(C3CCCN(S(C)(=O)=O)C3)nc(C)n2c1C` (centres undefined): the cytotoxicity at 70.5 h was -9.83%.

Turning to `Fc1ccc(N2CCOC(Cc3cccnc3)C2)cc1` (centres undefined), the cytotoxicity at 70.5 h is -9.3%.

For the compound `Cc1cc(CCC(=O)O)nc(C2CCCN2c2ccnc(C)n2)n1` (centres undefined), the cytotoxicity at 70.5 h was -6.16%.

`Cc1cc(N2CCC(c3n[nH]c4nccnc34)CC2)ncn1`: the cytotoxicity at 70.5 h is 19%.

For the compound `COCCN1CCCC(Cc2ccc(N3CCOCC3)nn2)C1` (centres undefined), the cytotoxicity at 70.5 h was -7.53%.

Turning to `Cn1cc(C(=O)N2CCCC2c2[nH]ncc2C(N)=O)cn1` (centres undefined), the cytotoxicity at 70.5 h was -5.5%.

For the compound `COCCn1cnnc1C1CCCN(c2cnccn2)C1` (centres undefined), the cytotoxicity at 70.5 h is -5.97%.

`Cc1ccnn1CCC(=O)N1CCC(c2cnccn2)CC1`: the cytotoxicity at 70.5 h was -7.09%.

`CCN(Cc1ccncc1)CC1(O)CCN(C(=O)c2cccc(C)n2)C1` (centres undefined): the cytotoxicity at 70.5 h is -4.96%.

`CNc1cncc(C2CCCN2S(=O)(=O)c2ccc(F)cc2)n1` (centres undefined): the cytotoxicity at 70.5 h is -2.18%.

For `Cc1cc(C)nc(C2CCN(C(=O)c3cnc(N(C)C)nc3)C2)n1` (centres undefined), the cytotoxicity at 70.5 h was -4.6%.

On to `Cn1c(CN2CCOC(CCc3ccncn3)C2)nc2ccccc21` (centres undefined), for which the cytotoxicity at 70.5 h was -3.77%.

As for `Cc1ccc([C@@]2(O)CC[C@@H]3CN(S(=O)(=O)c4cn(C)nc4C)C[C@@H]32)cc1`, the cytotoxicity at 70.5 h is -2.34%.

Consider `Cc1noc(C)c1-c1nc(N(C)CCN(C)C)ncc1-c1cnccn1`, for which the cytotoxicity at 70.5 h is -6.02%.

`CN1CCNC(Cc2ccc(-c3cccs3)cc2)C1=O` (centres undefined): the cytotoxicity at 70.5 h is -6.3%.

For the compound `CC(=O)N1CCC(Cc2cnc(-c3c(C)n[nH]c3C)cn2)CC1`, the cytotoxicity at 70.5 h turned out to be 18.9%.

For the compound `CNC(=O)c1cn[nH]c1C1CCCN1C(=O)c1cccnc1` (centres undefined), the cytotoxicity at 70.5 h is -4.17%.

With `Cc1nc(C2(O)CCCNCC2)sc1CCOc1ccccc1F` (centres undefined), the cytotoxicity at 70.5 h was 2.34%.

Take `CN(C)c1ncc(-c2cccc(F)c2)c(C2CNCCO2)n1` (centres undefined): the cytotoxicity at 70.5 h was -5.48%.

Regarding `O=S(=O)(N1CCCC1)N1C[C@@H](c2cccc(F)c2)[C@@H]2NCCCCC[C@H]21`, the cytotoxicity at 70.5 h is -6.83%.

As for `CN(C)C(=O)c1ccc(C2CCCNC2)nc1` (centres undefined), the cytotoxicity at 70.5 h was -6.57%.

In the case of `O=C(CN1CCCCC1)N1CCC(c2cc(=O)n3c(n2)CCCCC3)C1` (centres undefined), the cytotoxicity at 70.5 h was -1.74%.

These data come from ChEMBL document CHEMBL3507680, “University of Dundee, Gates Library screen for HepG2 cell viability”.
